Laboratory results taken from patent US20140206028A1, “Stable Electrically Active Neurons from Adult Tissue” (University of Central Florida Research Foundation, Inc., priority 2011, published 2014).

Key:
Type in all cases: cell-based
[1] = test system: adult rat hippocampal neurons on MEAs; assay: MEA recording of spontaneous activity, adult hippocampal neurons; conditions: adult cultures
Experimental: Adult neurons were extracted, dissociated, cultured, and maintained. Briefly, the hippocampi of adult rats (Charles River, age 6-12 months) were dissected and homogenized into small tissue fragments in cold medium (˜4° C.) consisting of Hibernate-A, glutamax, and antibiotic-antimycotic. The tissue was digested for 30 minutes at 37° C. in calcium-free Hibernate-A (HA) containing 6 mg papain/12 ml (HA no calcium). Following digestion, the tissue was washed three times with cold HA media to remove any active enzyme. Next, the tissue was suspended in Dissociation Medium and broken apart into individual cells through mechanical dissociation with fire-polished Pasteur pipettes. The dissociated cells were suspended in Plating medium and then deposited onto DETA (N-1 [3-(trimethoxysilyl) propyl]-diethylenetriamine, United Chemical Technologies Inc., Bristol, Pa., T2910KG) coated glass cover slips. After 30-45 minutes, the cover slips were washed with warm HA by gently swirling the medium to remove tissue debris. Following this washing step, fresh Plating medium was applied and remained for the first 3 div. On 3 div the medium was removed and replaced by Maintenance Medium with 5 μM Roscovitine (Rosc, Sigma, R7772). All research was approved by the Institutional Animal Care and Use Committee at the University of Central Florida and conformed to NIH guidelines. After 4 div, the adult hippocampal neurons on the DETA cover slips were passaged to MEAs. Briefly, neurons were dislodged from the DETA with trypsin (0.05% trypsin/EDTA in HBSS, Gibco, 25200). Trypsin inhibitor (trypsin inhibitor, soybean, Gibco, 17075-029) in Dissociation medium at 0.5 mg per ml deactivated the trypsin. The dislodged neurons were collected and spun at 500×g for 5 minutes. The supernatant of deactivated trypsin in HBSS was discarded, and the neuronal cell pellet was suspended in 1 ml Plating medium. Immunocytochemistry and Laser Scanning Confocal Microscopy
(§1) The MEA chips (Axion Biosystems) provided 64 platinum-black coated gold-electrodes with a diameter of 30 μm, organized in an 8 by 8 array with 200 μm pitch. Clean MEAs were sterilized with 70% alcohol and then incubated with 1 ml poly-L-lysine (100 μg/ml) for 30 minutes. An area just large enough to cover all electrodes was additionally coated with 3 μl laminin (2 μg/ml) over night. Embryonic rat hippocampal neurons were plated directly on MEAs at a density of 500 cells/mm2. Adult rat hippocampal neurons were first cultured on DETA coated cover slips for recovery. […] After 4 days on DETA cover slips, the adult neurons were passaged onto MEAs at a density of 500 cells/mm2. Every 2-3 days, half the medium was replaced with fresh Maintenance medium supplemented with 2 μM Rosc.
(§2) MEAs were incubated with their covers off to allow gas exchange but covered upon removal from the incubator to reduce contamination, media evaporation, and gas exchange while recordings were taken. The head stage of the recording system (Axion Biosystems) was pre-heated to 37° C. before MEAs with adult or embryonic hippocampal cultures were investigated. The activity of neuronal networks was recorded with 25 kHz using the software Axion's Integrated Studio (AxIS). Signal amplitudes 6 times larger than the standard deviation of the base line were detected as action-potential spikes. The spike data was then imported into Matlab 2010b (The MathWorks) for further processing.
Baseline spontaneous activity in adult and embryonic neurons was recorded for 3 minutes on 5 consecutive days per week, starting on 7 div. The synaptic antagonists D-(−)-2-Amino-5-phosphonopentanoic acid (D-APS, 25 μM, Tocris Bioscience, 0106), 6-Cyano-7-nitroquinoxaline-2,3-dione disodium (CNQX, 25 μM, Tocris Bioscience, 1045), and (−)-Bicuculline methobromide (Bicuculline, 50 μM, Tocris Bioscience, 0109) were separately administered to both adult and embryonic neurons on 14 div and at various time points between 30 and 60 div. […]

[2] = test system: embryonic rat hippocampal neurons on MEAs; assay: MEA recording of spontaneous activity, embryonic hippocampal neurons; conditions: embryonic cultures
Experimental: Embryonic hippocampal neurons were cultured. Pregnant rats, 18 days in gestation, obtained from Charles River were euthanized with carbon dioxide and the fetuses were collected in ice-cold Hibernate E (BrainBits)/B27/Glutamaxtm/Antibiotic-antimycotic (Invitrogen) (Dissecting Medium). Each fetus was decapitated, and the whole brain was transferred to fresh ice cold dissecting medium. After isolation, the hippocampi were collected in a fresh tube of dissecting medium. The tissue was enzymatically digested at 37° C. for 10 minutes with papain (Worthington 3119), 12 mg/6 ml Hibernate-E (-calcium) (BrainBits)+0.5 mM Glutamax (Invitrogen). Hippocampal neurons were obtained by triturating the tissue using a fire-polished Pasteur pipette. After centrifugation, the cells were re-suspended in culture medium (Neurobasal/B27/Glutamaxtm/antibiotic-antimycotic) and plated on MEAs. All research was approved by the Institutional Animal Care and Use Committee at the University of Central Florida and conformed to NIH guidelines.
as §1, §2
Baseline spontaneous activity in adult and embryonic neurons was recorded for 3 minutes on 5 consecutive days per week, starting on 7 div. The synaptic antagonists D-(−)-2-Amino-5-phosphonopentanoic acid (D-APS, 25 μM, Tocris Bioscience, 0106), 6-Cyano-7-nitroquinoxaline-2,3-dione disodium (CNQX, 25 μM, Tocris Bioscience, 1045), and (−)-Bicuculline methobromide (Bicuculline, 50 μM, Tocris Bioscience, 0109) were separately administered to both adult and embryonic neurons on 14 div and at various time points between 30 and 60 div. Three minute recordings were made to quantify the effect from these antagonists on spontaneous activity. If necessary, additional baselines were recorded prior to the administration of antagonists. Each experiment was followed by a complete washout of the antagonist and replacement with fresh medium.
Data analysis was performed off-line using unpublished Matlab functions to evaluate spike files created during each MEA recording. […] In about 25% of the adult cultures and 14% of the embryonic cultures, portions of the neuronal networks detached from the substrate over time and especially after about 6 weeks. In order to accommodate the different numbers of active channels between MEAs, all values were corrected for the amount of active channels on an MEA. […]

[3] = test system: adult rat hippocampal neurons; assay: Control of neuronal division in dissociated adult rat hippocampal neuron culture (cell population, neurite length, marker expression); conditions: for elimination of division of cultured neurons by mitotic inhibitors: added to culture medium on 2 DIV, FudR 10 and 50 μM; for neuronal division after addition to the culture medium: roscovitine added to the culture medium (at 3 div in MEA work)
Experimental: The hippocampi of adult rats (Charles River, age 6-12 months) were dissected and homogenized into small tissue fragments in cold medium (˜4° C.) consisting of Hibernate-A, Glutamax, and antibiotic-antimycotic. The tissue was then digested for 30 minutes at 37° C. in calcium-free Hibernate-A (HA) containing 6 mg papain/12 ml (HA). Following digestion, the tissue was washed three times with cold Hibernate-A media to remove any active enzyme. Next, the tissue was suspended in Dissociation Media (Table 1), formulated for dissociation of rat and mouse adult brain tissue into individual cells and dissociated into individual cells through mechanical dissociation with fire-polished Pasteur pipettes. The dissociated cells were suspended in Plating Media (Table 1), used after tissue dissociation to promote neuronal attachment and regeneration, and then deposited onto DETA-coated glass cover slips for 30-45 minutes. DETA, with its triamine functional group exposed at the surface, strongly attaches to neurons and allows for all non-neuronal debris such as ECM proteins, myelin debris, and cell fragments to be washed from the cover slip surface (D. A. Stenger et al., 1993; J. J. Hickman et al., 1994; M. Das et al., 2005; A. E. Schaffner et al., 1995). Following this washing step, fresh Plating medium was applied and remained for the first 3 DIV. On 3 DIV and every fourth subsequent day, one half of the medium was removed and replaced with Maintenance Media (FIG. 1, Table 1), supporting the long-term maintenance of these neurons. […] The osmolarity of the media was adjusted to match the osmolarity of adult rat cerebrospinal fluid (295-305 mOsm) (S. C. Baraban et al., 1997; R. A. Fishman and G. D. Silverberg, 2002). In the Dissociation Medium (Table 1), the use of caspase inhibitors and antioxidants (M. Das et al., 2007) during the dissociation of the tissue minimized both oxidative damage as well as the progression into apoptosis which normally results from cellular damage during this stage. […] For long-term survival, the anti-oxidants were removed from the Maintenance Medium (Table 1).
After neuronal confluence, 25 μM glutamate ((N-Acetyl-L-glutamic acid, Aldrich, 855642) triggers induction of neuronal electrical recovery (D. Edwards et al., 2010). Control of the division of neurons in this culture system was investigated experimentally as follows: (1) bFGF removal from both the Plating and Maintenance medium. (2) Fluorodeoxyuridine (FudR, Sigma-Aldrich, F-0503) addition at 10 and 50 μM (3) arabinoside-D (ara-C, Sigma, C-6645) plus deoxycytidine addition. (4) Trolox (Sigma, 238813) addition at 40 and 100 μM. (5) Aphidicolin (Aph, Sigma, A0781) addition at 1.5 μM. (6) Roscovitine (Rosc, Sigma, R7772) addition at 1, 5, and 10 μM. All factors were added before the onset of neuronal division (2 DIV), some after the onset of division (after 3 DIV).
To prepare cells for immunocytochemical characterization, cover slips were rinsed twice with Phosphate Buffered Saline (PBS). Cells were fixed with 4% paraformaldehyde for ten minutes at room temperature, and subsequently rinsed three times with PBS. Cells were permeabilized for five min in PBS with 5 mM Lysine and 0.5% Triton X-100, and were then blocked for two hours by adding 5% normal donkey serum. Anti-Neurofilament-M polyclonal antibody (Nf-M, intracellular filament found in mature neurons, Chemicon, AB 1981, diluted 1:1000), anti-NeuN (nuclear marker in mature neurons, Chemicon, diluted 1:1000), anti-Ki-67 (nuclear marker in dividing cells, Chemicon, diluted 1:1000), anti-NR2A (NMDA channel subunit expressed in the post-synaptic cell membrane, AB1548, diluted 1:75), anti-NR2B (NMDA channel subunit expressed in the post-synaptic cell membrane, MAB5216, diluted 1:150) were added in blocking solution for 12 hr at 4° C. After 3 washes with PBS, fluorescently labeled secondary antibodies (Invitrogen, A1011, A21449, and A11029) were applied for two hours. […]

Compound: N#Cc1cc2c(cc1[N+](=O)[O-])=NC(=O)C(=O)N=2.[Na].[Na] [CNQX, 6-Cyano-7-nitroquinoxaline-2,3-dione disodium]
- change in action potential frequency ([1]; 25 μM CNQX, 14 div): not affected
- loss of channel activity (active channels) versus baseline ([1]; 25 μM antagonist, 14 div): 52±3%
- loss of channel activity (active channels) versus baseline ([1]; 25 μM antagonist, 30-60 div): 24±5%
- lowering (drop) of action potential frequency versus baseline ([1]; 25 μM antagonist, 30-60 div): 31±6%
- change in action potential frequency ([2]; 25 μM CNQX, 14 div): not affected
- loss of channel activity (active channels) versus baseline ([2]; 25 μM antagonist, 14 div): 23±5%
- decrease (drop) of firing rate versus baseline ([2]; 25 μM antagonist, 30-60 div): 47±5%
- loss of channel activity (active channels) versus baseline ([2]; 25 μM antagonist, 30-60 div): 0±7%

Compound: N[C@H](CCCP(=O)(O)O)C(=O)O [D-AP5, D-(−)-2-Amino-5-phosphonopentanoic acid]
- loss of channel activity (active channels) versus baseline ([1]; 25 μM antagonist, 14 div): 90±6%
- lowering of action potential frequency versus baseline ([1]; 25 μM antagonist, 14 div): 76±8%
- loss of channel activity (active channels) versus baseline ([1]; 25 μM antagonist, 30-60 div): 82±6%
- lowering (drop) of action potential frequency versus baseline ([1]; 25 μM antagonist, 30-60 div): 82±17%
- increase of firing rate versus baseline ([2]; 25 μM antagonist, 14 div): 90±6%
- loss of channel activity (active channels) versus baseline ([2]; 25 μM antagonist, 14 div): 65±4%
- decrease (drop) of firing rate versus baseline ([2]; 25 μM antagonist, 30-60 div): 70±7%
- loss of channel activity (active channels) versus baseline ([2]; 25 μM antagonist, 30-60 div): 36±7%

Compound: O=c1[nH]c(=O)n([C@H]2C[C@H](O)[C@@H](CO)O2)cc1F [FudR, Fluorodeoxyuridine]
- elimination of division of cultured neurons by mitotic inhibitors [3]: all dividing cells were forced into apoptosis

Compound: Cc1c(C)c2c(c(C)c1O)CCC(C)(C(=O)O)O2 (centres unmarked) [Trolox]
- prevention of return of primary neurons to the cell cycle ([3]; Trolox 40 and 100 μM, 2 DIV): not effective
- neuronal survival (antioxidant activity) ([3]; Trolox in culture medium): improve neuronal survival

Compound: C[C@@]1(CO)[C@H](O)CC[C@@]2(C)[C@H]1CC[C@H]1C[C@@H]3C[C@@]12CC[C@]3(O)CO [aphidicolin, Aphidicolin]
- regeneration of surviving neurons ([3]; aphidicolin 1.5 μM, 2 DIV): limited regeneration of neurites and functional electrical properties
- survival of cultured neurons ([3]; aphidicolin 1.5 μM, 2 DIV): caused most cultured neurons to either necrose or apoptose

Compound: Nc1ccn([C@@H]2O[C@H](CO)[C@@H](O)[C@@H]2O)c(=O)n1 [ara-C, arabinoside-D]
- elimination of division of cultured neurons by mitotic inhibitors [3]: all dividing cells were forced into apoptosis

Compound: CC[C@H](CO)Nc1nc(NCc2ccccc2)c2ncn(C(C)C)c2n1 [roscovitine]
- neuronal cell population ([3]; 1 μM roscovitine applied on day 2, bFGF in medium): the cell population increased more slowly than without roscovitine
- extension of primary axons versus untreated control neurons ([3]; 5 μM roscovitine days 2-7, 2 μM after day 7, on average): 4-5 times longer
- neuronal cell population ([3]; 5 μM roscovitine on days 2-7 in vitro and 2 μM after day 7): A stable population of neurons was achieved
- neuronal cell population ([3]; 5 μM roscovitine on days 2-7 in vitro and 2 μM after day 7, listed as Rosc): stable in vitro
- neuronal cell population ([3]; 10 μM roscovitine applied on day 2): caused a decrease in the neuronal population
- neuronal cell population ([3]; 10 μM roscovitine introduced on day 7): a sharp loss of neurons
- neuronal division after addition to the culture medium [3]: neurons no longer divided
- neuronal division after addition to the culture medium ([3]; listed as Roscovitine): prevented neuronal mitotic activity
- expression of neuronal and proliferation markers (MAP2, NeuN, Ki-67) ([3]; roscovitine treated, non-proliferating neurons, immunocytochemistry): expressed the mature neuronal markers MAP2 and NeuN, but lacked expression for the nuclear marker of proliferating cells, Ki-67

Compound: bFGF: basic fibroblast growth factor (Invitrogen, 13256-029)
- neuronal cell proliferation ([3]; bFGF 5 ng/ml in medium): triggered neuronal cell proliferation until confluence
